The record followed here is US6054441A, “Oxypurine nucleosides and their congeners, and acyl derivatives thereof, for improvement of hematopoiesis” (priority 1995, dated 2000).

Assay [1] has as its system FDCPmix cells. Description: Proliferation of FDCPmix cells, MTT assay (Example 69). It counts as cell-based. The settings on record: for inhibition of proliferation: 10 micrograms/ml down; for activity at 0.01 µg/mL / activity at 0.039 µg/mL / activity at 0.156 µg/mL / activity at 0.625 µg/mL / activity at 2.5 µg/mL / activity at 10 µg/mL: 48 h, read-out: Cell proliferation. How it is done:
The FDCPmix cell line was used as a suitable in vitro model for predicting the effects of hematopoietic factors on pluripotential stem cells. These cells can be maintained in an-undifferentiated state in the presence of IL-3 or undergo multi-lineage development in the presence of specific hematopoietic growth factors.
This level of proliferation (100%) served as the control value. Inhibition of proliferation by test compounds was represented as a percent of control.
FDCPmix cells were plated at a density of 5×10^4 cells per well in 96-well plates (5×10^5 /ml) using IMDM medium plus 10% fetal bovine serum. […] Test compounds were added at a decreasing concentrations ranging from 10 micrograms/ml down to 1 nanogram/ml. The test compounds included: 3',5'-O-N^2 -tripalmitoyl-2'-deoxyguanosine, 3',5'-di-O-palmitoyl-2'-deoxyguanosine, 3',5'-O-N^2 -trioctanoyl-2'-deoxyguanosine, 3',5'-di-O-octanoyl-2'-deoxyguanosine, and 3',5'-O-N^2 -trioleyl-2'-deoxyguanosine.
Background: Tetrazolium assays rely on reduction of a dye to a coloured formazan, in cell work by metabolically active cells.

Assay [2] relates to blood cell counts after cyclophosphamide. Description: Hematopoietic recovery after cyclophosphamide (Example 63). The class given is in vivo, Balb-C mice. The settings on record: for Neutrophils / Platelets / WBC / Spleen: 7 days after CP; for Spleen: 25 mg/kg TriPdG or molar equivalent. As for the experimental part: Fifty-eight female Balb-C mice weighing approximately 20 grams each received a single injection of cyclophosphamide (250 mg/kg, i.p.), and were then distributed into a vehicle control group (0.2% Tween-80+7.5% DMSO in saline; n=12) or one of five treatment groups:
Vehicle or treatment agents were administered to mice once daily for five days at a volume of 0.4 ml by i.p. injection. TriPdG was given at a dose of 25 mg/kg/treatment. The other four agents were given in doses that are the molar equivalent of 25 mg/kg/treatment of TriPdG. On days 5 and 7 following CP administration half of the animals from each of the six groups were bled and then sacrificed by cervical dislocation. Five untreated mice were also bled and sacrificed to provide data on normal (basal) values. Spleens were removed and weighed, and complete blood cell counts performed.

Assay [3] relates to hematopoietic recovery after cyclophosphamide. Description: Hematopoietic recovery after cyclophosphamide (Example 51). It counts as in vivo, Balb/C mice. The settings on record: day 5; 2 μmoles/mouse. How it is done: Cyclophosphamide (CP) (275 mg/kg, i.p.) was administered to 88 Balb/C female mice weighing approximately 20 grams each. Twenty-four hours later and each day thereafter mice were given a 0.4 ml i.p. injection of either Tween-80 (0.2%) (controls), 3'-O-palmitoyldeoxyguanosine (2 μmoles/mouse), butyryldeoxyguanosine (2 μmoles/mouse), palmitoyl-N-isobutyryldeoxyguanosine (2 μmoles/mouse), lauryldeoxyguanosine (2 μmoles/mouse), octanoyldeoxyguanosine (2 μmoles/mouse), and palmitoyldeoxyguanosine (2 μmoles/mouse). On days 5 and 7 following CP administration 6 or 7 animals in each of the 7 groups were bled and then sacrificed by cervical dislocation. Spleens were removed and weighed, and complete blood cell counts performed.

Assay [4] relates to hematopoiesis in normal mice. Description: Hematopoiesis in normal mice (Example 56). The class given is in vivo, Balb/C mice. The settings on record: femoral bone marrow; day 5; 2.6 μmoles/mouse, 4 days. How it is done:
Normal Balb/C female mice weighing approximately 20 grams each were given a daily 0.4 ml i.p. injection of either physiological saline (controls), palmitoylguanosine (2.6 μmoles/mouse), palmitoyldeoxyguanosine (2.6 μmoles/mouse), monopalmitoylguanosine 2',3'-acyclic dialcohol (2.6 μmoles/mouse), and palmitoyl-8-bromoguanosine (2.6 μmoles/mouse) for 4 days. On the fifth day all 3 animals in each of the 5 groups were bled and then sacrificed by cervical dislocation. Spleens were removed and weighed, and complete blood cell counts performed. Femoral bone marrow from each mouse was collected and a differential cell count performed on marrow smears.

Assay [5] relates to hematopoietic recovery after cyclophosphamide. Description: Hematopoietic recovery after cyclophosphamide (Example 47). It counts as in vivo, Balb/C mice. As for the experimental part: Cyclophosphamide (CP) (275 mg/kg, i.p.) was administered to 48 Balb/C female mice weighing approximately 20 grams each. Twenty-four hours later and each day thereafter for a total of 6 days, mice were given a 0.4 ml i.p. injection of either physiological saline (controls), benzoylguanosine (2.5 μmoles/mouse/day in 0.2% Tween 80), or palmitoylguanosine (2.5 μmoles/mouse/day in 0.2% Tween 80). On days 7 and 10 following CP administration 8 animals from each of the 3 groups were bled and then were sacrificed by cervical dislocation. Spleens were removed and weighed, and complete blood cell counts performed.

Assay [6] shares this test system. Description: Hematopoietic recovery after cyclophosphamide (Example 48). The class given is in vivo, Balb/C mice. The settings on record: day 7; vs controls. As for the experimental part: Cyclophosphamide (CP) (275 mg/kg, i.p.) was administered to 36 Balb/C female mice weighing approximately 20 grams each. Twenty four hours later and each day thereafter for a total of 4 or 6 days, mice were given a 0.4 ml i.p. injection of either physiological saline (controls), palmitoyldeoxyinosine (2.5 μmoles/mouse), or palmitoylxanthosine (2.5 μmoles/mouse). On days 5 and 7 following CP administration 6 of the 12 animals in each of the 3 groups were bled and then sacrificed by cervical dislocation. Spleens were removed and weighed, and complete blood cell counts performed.

Take `CCCCCCCC(=O)Nc1nc2c(ncn2[C@H]2C[C@H](OC(=O)CCCCCCC)[C@@H](COC(=O)CCCCCCC)O2)c(=O)[nH]1` [TriOctdG, 3',5'-O-N^2-trioctanoyl-2'-deoxyguanosine]: in assay [1], the inhibition of proliferation result is reported as “little or no inhibitory effects”, the activity at 0.01 µg/mL turned out to be 87 ± 4%, the activity at 0.039 µg/mL came to 85 ± 2% and the activity at 0.156 µg/mL came out at 89 ± 6%. Besides, in assay [1], the activity at 0.625 µg/mL came to 86 ± 2%, the activity at 2.5 µg/mL was 96 ± 0.1% and the activity at 10 µg/mL was 107 ± 1%.
As to `CCCCCCCCCCCCCCCCCC(=O)Nc1nc2c(ncn2[C@H]2C[C@H](OC(=O)CCCCCCCCCCCCCCCCC)[C@@H](COC(=O)CCCCCCCCCCCCCCCCC)O2)c(=O)[nH]1` [TriSdG, 3',5'-O-N^2-tristearyl-2'-deoxyguanosine], in assay [2], the Neutrophils is 5.4 ± .5 K/μl, the Platelets came out at 498 ± 27 K/μl, the WBC is 7.6 ± .4 K/μl and the Spleen came to 85 ± 9 mg.
On to `CCCCCCCCCCCCCCCC(=O)OC[C@H]1O[C@@H](n2cnc3c(=O)[nH]c(NC(=O)C(C)C)nc32)C[C@@H]1O` [NibuPdG, N^2-isobutyryl-5'-O-palmitoyl-2'-deoxyguanosine], for which, in assay [3], the spleen weight result was “significantly elevated” and the total neutrophil counts result was “significantly elevated”. Besides, in assay [2], the Neutrophils was 2.2 ± .5 K/μl, the Platelets amounted to 649 ± 23 K/μl, the WBC is listed as 4.4 ± .5 K/μl and the Spleen is listed as 69 ± 6 mg.
Regarding `CCCCCCCCCCCCCCCC(=O)OC[C@H]1O[C@@H](n2c(Br)nc3c(=O)[nH]c(N)nc32)[C@H](O)[C@@H]1O` [palmitoyl-8-bromoguanosine], the number of myelocytes entry in assay [4] is “significantly greater”.
On to `CCCCCCCCCCCCCCCC(=O)O[C@H]1C[C@H](n2cnc3c(=O)[nH]c(N)nc32)O[C@@H]1CO` [3'-O-palmitoyldeoxyguanosine, 3'-O-Palmitoyl-2'-deoxyguanosine], for which, in assay [3], the spleen weight result is recorded as “significantly elevated” and the total neutrophil counts result was “significantly elevated”.
As for `CCCCCCCC(=O)OC[C@H]1O[C@@H](n2cnc3c(=O)[nH]c(N)nc32)C[C@@H]1OC(=O)CCCCCCC` [DiOctdG, 3',5'-di-O-octanoyl-2'-deoxyguanosine], in assay [1], the inhibition of proliferation result is reported as “little or no inhibitory effects”, the activity at 0.01 µg/mL was 84 ± 2%, the activity at 0.039 µg/mL was 86 ± 1% and the activity at 0.156 µg/mL is 84 ± 6%. Further, in assay [1], the activity at 0.625 µg/mL is 93 ± 1%, the activity at 2.5 µg/mL came to 78 ± 2% and the activity at 10 µg/mL was 100 ± 0.3%.
With Benzoylguanosine, in assay [5] (day 7, 2.5 μmoles/mouse/day), the Neutrophils result was “significantly elevated”, the spleen weight entry is recorded as “significantly elevated” and the “total white blood cells” value is “significantly elevated”. For the same compound, the platelet number entry in assay [5] (day 10) is reported as “significantly greater”.
Take Palmitoylxanthosine: in assay [6], the Neutrophils entry was “significantly increased”, the spleen weight entry was “significantly increased” and the total leukocytes entry is “significantly increased”.
`CCCCCCCC/C=C\CCCCCCCC(=O)Nc1nc2c(ncn2[C@H]2C[C@H](OC(=O)CCCCCCC/C=C\CCCCCCCC)[C@@H](COC(=O)CCCCCCC/C=C\CCCCCCCC)O2)c(=O)[nH]1` [TriOdG, 3',5'-O-N^2-trioleyl-2'-deoxyguanosine]: in assay [1], the inhibition of proliferation entry is reported as “little or no inhibitory effects”, the activity at 0.01 µg/mL is 92 ± 5%, the activity at 0.039 µg/mL came out at 91 ± 5% and the activity at 0.156 µg/mL turned out to be 92 ± 5%. In assay [1], the activity at 0.625 µg/mL turned out to be 98 ± 6%, the activity at 2.5 µg/mL amounted to 80 ± 2% and the activity at 10 µg/mL came out at 110 ± 3%. Besides, in assay [2], the Neutrophils was 2.7 ± .4 K/μl, the Platelets was 741 ± 54 K/μl, the WBC is 5.2 ± .4 K/μl and the Spleen is given as 59 ± 5 mg. In assay [2] (day 7 after CP, vs control), the lymphocyte counts result was “increased both platelet and lymphocyte counts”.
